Data from patent publication US20220184034A1, “METHODS FOR TREATING CUTANEOUS METASTATIC CANCERS” (Adgero Biopharmaceuticals Holdings, Inc., priority 2020, published 2022).

Tested on: cutaneous lesions arising from either basal cell cancer, squamous cell cancer or CMBC
Experiment: Phase 1/2 dose escalation study of SnET2 PDT: lesion response
Type: in vivo, patients
Description: Two Phase 1/2 studies established the clinical dosimetry. The first study was a dose escalation study that enrolled a total of 22 patients with cutaneous lesions arising from either basal cell cancer, squamous cell cancer or CMBC. A total of 213 lesions were treated using photosensitizer SnET2) doses ranging from 0.1-1.2 mg/kg, light doses of 100, 150 or 200 J/cm^2 and treatment timepoints of 24, 48, or 72 hours post-infusion. Two key measures were utilized in these studies, lesion reaction and lesion response. Lesion reaction was an acute characterization of the treatment effect that was performed out to 1 week post-treatment according to the following scale: • Grade 0=No visual erythema or edema • Grade 1=Faint erythema and/or slight edema • Grade 2=Moderate erythema and edema • Grade 3=Severe discoloration, edema, sloughing or eschar
Beginning at one month post-treatment and then at 3 and 6 months post-treatment, a lesion response assessment was conducted according to the following scoring system: • Complete Response (complete reduction of the lesion) • Partial Response (more than 50% reduction of the lesion) • Failure (less than 50% reduction of the lesion).
Therefore, in the analysis that follows, results from all three treatment timepoints have been combined.
A similar result was observed when individual patient responses were compared. In these studies, individual patients received a single drug dose and each patient then had individual lesions treated at various light doses (100, 150, or 200 J/cm^2) and treatment timepoints (24, 48, 72 hours post-infusion). In Table 3, results for each patient treated at 0.8 mg/kg or higher are provided. In each drug dose case, individual lesions were treated at one of the three light doses and one of the three treatment timepoints, all of which have been combined for each individual patient result in the table.

[1] = 0.1 mg/kg, 100 J/cm^2, 24/48/72 h combined
[2] = 0.1 mg/kg, 150 J/cm^2, 24/48/72 h combined
[3] = 0.1 mg/kg, 200 J/cm^2, 24/48/72 h combined
[4] = 0.2 mg/kg, 100 J/cm^2, 24/48/72 h combined
[5] = 0.2 mg/kg, 150 J/cm^2, 24/48/72 h combined
[6] = 0.2 mg/kg, 200 J/cm^2, 24/48/72 h combined
[7] = 0.4 mg/kg, 100 J/cm^2, 24/48/72 h combined
[8] = 0.4 mg/kg, 150 J/cm^2, 24/48/72 h combined
[9] = 0.4 mg/kg, 200 J/cm^2, 24/48/72 h combined
[10] = 0.8 mg/kg, 100 J/cm^2, 24/48/72 h combined
[11] = 0.8 mg/kg, 100 J/cm^2, lesions scored for reaction at Week 1
[12] = 0.8 mg/kg, 150 J/cm^2, 24/48/72 h combined
[13] = 0.8 mg/kg, 150 J/cm^2, lesions scored for reaction at Week 1
[14] = 0.8 mg/kg, 200 J/cm^2, 24/48/72 h combined
[15] = 0.8 mg/kg, 200 J/cm^2, lesions scored for reaction at Week 1
[16] = 1.0 mg/kg, 100 J/cm^2, 24/48/72 h combined
[17] = 1.0 mg/kg, 100 J/cm^2, lesions scored for reaction at Week 1
[18] = 1.0 mg/kg, 150 J/cm^2, 24/48/72 h combined
[19] = 1.0 mg/kg, 150 J/cm^2, lesions scored for reaction at Week 1
[20] = 1.0 mg/kg, 200 J/cm^2, 24/48/72 h combined
[21] = 1.0 mg/kg, 200 J/cm^2, lesions scored for reaction at Week 1
[22] = 1.2 mg/kg, 100 J/cm^2, 24/48/72 h combined
[23] = 1.2 mg/kg, 100 J/cm^2, lesions scored for reaction at Week 1
[24] = 1.2 mg/kg, 150 J/cm^2, 24/48/72 h combined
[25] = 1.2 mg/kg, 150 J/cm^2, lesions scored for reaction at Week 1
[26] = 1.2 mg/kg, 200 J/cm^2, 24/48/72 h combined
[27] = 1.2 mg/kg, 200 J/cm^2, lesions scored for reaction at Week 1
[28] = patient RC004, drug dose 0.8 mg/kg, light doses and timepoints combined
[29] = patient RC005, drug dose 1.2 mg/kg, light doses and timepoints combined
[30] = patient RC006, drug dose 1.2 mg/kg, light doses and timepoints combined
[31] = patient RC007, drug dose 1.2 mg/kg, light doses and timepoints combined
[32] = patient SC001, drug dose 1.2 mg/kg, light doses and timepoints combined
[33] = patient SC002, drug dose 1 mg/kg, light doses and timepoints combined
[34] = patient SC003, drug dose 1 mg/kg, light doses and timepoints combined
[35] = patient SC004, drug dose 1 mg/kg, light doses and timepoints combined
[36] = patient SC005, drug dose 1.2 mg/kg, light doses and timepoints combined
[37] = patient WC007, drug dose 0.8 mg/kg, light doses and timepoints combined
[38] = patient WC008, drug dose 0.8 mg/kg, light doses and timepoints combined
[39] = patient WC009, drug dose 1.2 mg/kg, light doses and timepoints combined
[40] = patient WC010, drug dose 1.2 mg/kg, light doses and timepoints combined

tin ethyl etiopurpurin [SnET2]
Complete Responders [1]: 0
Partial Responders [1]: 0
Response Rate (%) [1]: 0%
Total Responders [1]: 0
Complete Responders [2]: 0
Partial Responders [2]: 0
Response Rate (%) [2]: 0%
Total Responders [2]: 0
Complete Responders [3]: 0
Partial Responders [3]: 0
Response Rate (%) [3]: 0%
Total Responders [3]: 0
Complete Responders [4]: 0
Partial Responders [4]: 1
Response Rate (%) [4]: 50%
Total Responders [4]: 1
Complete Responders [5]: 0
Partial Responders [5]: 0
Response Rate (%) [5]: 0%
Total Responders [5]: 0
Complete Responders [6]: 0
Partial Responders [6]: 0
Response Rate (%) [6]: 0%
Total Responders [6]: 0
Complete Responders [7]: 0
Partial Responders [7]: 0
Response Rate (%) [7]: 0%
Total Responders [7]: 0
Complete Responders [8]: 0
Partial Responders [8]: 0
Response Rate (%) [8]: 0%
Total Responders [8]: 0
Complete Responders [9]: 0
Partial Responders [9]: 0
Response Rate (%) [9]: 0%
Total Responders [9]: 0
lesions with responses (0.8 mg/kg or higher): 95 of 102
Complete Responders [10]: 9
Partial Responders [10]: 2
Response Rate (%) [10]: 78%
Total Responders [10]: 11
% Responders [11]: 79%
Total Responders [11]: 11
Complete Responders [12]: 8
Partial Responders [12]: 5
Response Rate (%) [12]: 87%
Total Responders [12]: 13
% Responders [13]: 87%
Total Responders [13]: 13
Complete Responders [14]: 12
Partial Responders [14]: 1
Response Rate (%) [14]: 87%
Total Responders [14]: 13
% Responders [15]: 87%
Total Responders [15]: 13
Complete Responders [16]: 3
Partial Responders [16]: 0
Response Rate (%) [16]: 100%
Total Responders [16]: 3
% Responders [17]: 100%
Total Responders [17]: 3
Complete Responders [18]: 4
Partial Responders [18]: 1
Response Rate (%) [18]: 100%
Total Responders [18]: 5
% Responders [19]: 100%
Total Responders [19]: 5
Complete Responders [20]: 8
Partial Responders [20]: 0
Response Rate (%) [20]: 100%
Total Responders [20]: 8
% Responders [21]: 100%
Total Responders [21]: 8
Complete Responders [22]: 5
Partial Responders [22]: 7
Response Rate (%) [22]: 100%
Total Responders [22]: 12
% Responders [23]: 100%
Total Responders [23]: 6
Complete Responders [24]: 7
Partial Responders [24]: 9
Response Rate (%) [24]: 100%
Total Responders [24]: 16
% Responders [25]: 100%
Total Responders [25]: 9
Complete Responders [26]: 11
Partial Responders [26]: 3
Response Rate (%) [26]: 100%
Total Responders [26]: 14
% Responders [27]: 100%
Total Responders [27]: 7
response rate of individual patients (all patients at 0.8 mg/kg or higher, with the exception of one patient dosed at 0.8 mg/kg): 100%
response at the drug dose threshold and greater (at about 0.5 to about 0.8 mg/kg and greater (1.2 mg/kg)): good responses were observed
threshold dose for lesion response (dose escalation 0.1-1.2 mg/kg): 0.8 mg/kg
response below the drug dose threshold (doses below about 0.5 to about 0.8 mg/kg): no response was observed
Lesions Responded (doses less than 0.8 mg/kg): 1 of 111
influence of light dose and treatment timepoint (light doses 100 to 200 J/cm^2, timepoints 24 to 72 hours post administration): did not indicate significant differences
variation in response with treatment timepoint (light given at 24, 48 or 72 hours after administration): minimal variation in response with treatment timepoint
% Lesions Responded [28]: 74%
Lesions Responded [28]: 20
% Lesions Responded [29]: 100%
Lesions Responded [29]: 6
% Lesions Responded [30]: 100%
Lesions Responded [30]: 1
% Lesions Responded [31]: 100%
Lesions Responded [31]: 3
% Lesions Responded [32]: 100%
Lesions Responded [32]: 4
% Lesions Responded [33]: 100%
Lesions Responded [33]: 6
% Lesions Responded [34]: 100%
Lesions Responded [34]: 6
% Lesions Responded [35]: 100%
Lesions Responded [35]: 4
% Lesions Responded [36]: 100%
Lesions Responded [36]: 6
% Lesions Responded [37]: 100%
Lesions Responded [37]: 9
% Lesions Responded [38]: 100%
Lesions Responded [38]: 8
% Lesions Responded [39]: 100%
Lesions Responded [39]: 20
% Lesions Responded [40]: 100%
Lesions Responded [40]: 2
